{"source": "patent US9211336B2", "about": "“Antioxidant stabilized pharmaceutical formulations comprising antineoplastic compounds” (Hikma Pharmaceuticals, priority 2013, dated 2015)", "key": {"[1]": {"assay": "Stability study, effect of pH: temozolomide solutions in various buffers", "type": "physicochemical"}, "[2]": {"conditions": "solid powder, 1 month 40° C./75% RH; weight percentage", "protocol": "In the tested formulations, the weight percentages of certain degradation products were measured."}, "[3]": {"conditions": "only stable in acidic conditions; cited from earlier work"}, "[4]": {"assay": "Effect of controlled preparation temperature on dissolution of temozolomide"}}, "data": [{"smiles": "Cn1nnc2c(C(N)=O)ncn2c1=O", "note": "[Temozolomide, 3,4-dihydro-3-methyl-4-oxoimidazo[5,1-d]-as-tetrazine-8-carboxamide]", "values": [{"measurement": "Stability after 1 hr (temozolomide as % of amount originally added)", "setting": "[1]; 0.1N HCl pH = 1.1", "value": 101.7, "unit": "%"}, {"measurement": "Stability after 5 hr", "setting": "[1]; 0.1N HCl pH = 1.1", "value": 100.2, "unit": "%"}, {"measurement": "Stability after 6 hr", "setting": "[1]; 0.1N HCl pH = 1.1", "value": 99.8, "unit": "%"}, {"measurement": "Stability after 1 hr (temozolomide as % of amount originally added)", "setting": "[1]; Acetate Buffer pH = 4.5", "value": 99.2, "unit": "%"}, {"measurement": "Stability after 5 hr", "setting": "[1]; Acetate Buffer pH = 4.5", "value": 98.1, "unit": "%"}, {"measurement": "Stability after 6 hr", "setting": "[1]; Acetate Buffer pH = 4.5", "value": 98.2, "unit": "%"}, {"measurement": "Stability after 1 hr (temozolomide as % of amount originally added)", "setting": "[1]; Hydrochloride Buffer pH = 2.2", "value": 99.1, "unit": "%"}, {"measurement": "Stability after 5 hr", "setting": "[1]; Hydrochloride Buffer pH = 2.2", "value": 98.6, "unit": "%"}, {"measurement": "Stability after 6 hr", "setting": "[1]; Hydrochloride Buffer pH = 2.2", "value": 99.0, "unit": "%"}, {"measurement": "Stability after 5 min", "setting": "[1]; Phosphate Buffer pH = 6.8", "value": 100.1, "unit": "%"}, {"measurement": "Stability after 10 min", "setting": "[1]; Phosphate Buffer pH = 6.8", "value": 99.8, "unit": "%"}, {"measurement": "Stability after 15 min", "setting": "[1]; Phosphate Buffer pH = 6.8", "value": 99.0, "unit": "%"}, {"measurement": "Stability after 30 min", "setting": "[1]; Phosphate Buffer pH = 6.8", "value": 98.0, "unit": "%"}, {"measurement": "Stability after 5 min", "setting": "[1]; Phosphate Buffer pH = 7.5", "value": 99.4, "unit": "%"}, {"measurement": "Stability after 10 min", "setting": "[1]; Phosphate Buffer pH = 7.5", "value": 99.0, "unit": "%"}, {"measurement": "Stability after 15 min", "setting": "[1]; Phosphate Buffer pH = 7.5", "value": 97.8, "unit": "%"}, {"measurement": "Stability after 30 min", "setting": "[1]; Phosphate Buffer pH = 7.5", "value": 90.5, "unit": "%"}, {"measurement": "Stability after 5 min", "setting": "[1]; Water", "value": 99.9, "unit": "%"}, {"measurement": "Stability after 10 min", "setting": "[1]; Water", "value": 99.6, "unit": "%"}, {"measurement": "Stability after 15 min", "setting": "[1]; Water", "value": 98.8, "unit": "%"}, {"measurement": "Stability after 30 min", "setting": "[1]; Water", "value": 97.6, "unit": "%"}, {"measurement": "Dacarbazine-related compound A", "setting": "[2]", "value": 8.4, "unit": "%"}, {"measurement": "Max. Unknown", "setting": "[2]", "value": 0.22, "unit": "%"}, {"measurement": "pH at which stable", "setting": "[3]", "value": "less than 5"}, {"measurement": "Observation (dissolution of temozolomide)", "setting": "[4]; Prep Temp 10 ° C., About 3 hrs", "value": "Temozolomide did not dissolve"}, {"measurement": "Observation (dissolution of temozolomide)", "setting": "[4]; Prep Temp 15 ° C., About 2 hrs", "value": "Temozolomide did not dissolve"}, {"measurement": "Observation (dissolution of temozolomide)", "setting": "[4]; Prep Temp 18 ° C.", "value": "Temozolomide dissolved"}, {"measurement": "Time (to dissolve)", "setting": "[4]; Prep Temp 18 ° C.", "value": "About 0.5 to 0.75 hrs"}, {"measurement": "Observation (dissolution of temozolomide)", "setting": "[4]; Prep Temp 19 ° C.", "value": "Temozolomide dissolved"}, {"measurement": "Time (to dissolve)", "setting": "[4]; Prep Temp 19 ° C.", "value": "About 0.5 to 0.75 hrs"}, {"measurement": "Observation (dissolution of temozolomide)", "setting": "[4]; Prep Temp 20 ° C.", "value": "Temozolomide dissolved"}, {"measurement": "Time (to dissolve)", "setting": "[4]; Prep Temp 20 ° C.", "value": "About 0.5 to 0.75 hrs"}, {"measurement": "Observation (dissolution of temozolomide)", "setting": "[4]; Prep Temp 24 ° C.", "value": "Temozolomide dissolved"}, {"measurement": "Time (to dissolve)", "setting": "[4]; Prep Temp 24 ° C.", "value": "About 0.5 to 0.75 hrs"}, {"measurement": "Observation (dissolution of temozolomide)", "setting": "[4]; Prep Temp 25 ° C.", "value": "Temozolomide dissolved"}, {"measurement": "Time (to dissolve)", "setting": "[4]; Prep Temp 25 ° C.", "value": "About 0.5 to 0.75 hrs"}]}]}
